{"source": "patent US11950594B2", "about": "“Methods and compositions for inhibiting formation of biofilms” (INSTITUTE OF MICROBIOLOGY, CHINESE ACADEMY OF SCIENCES, priority 2019, dated 2024)", "key": {"[1]": {"test_system": "Pseudomonas aeruginosa PAO1 biofilm", "experiment": "Biofilm assay (96-well PVC plate, crystal violet)", "assay_type": "cell-based", "description": "1% inoculation amount of the bacterial solution cultured overnight was inoculated into 100 μL Jensen liquid medium. Different equal amounts of bacteria solution with C1 to C12, respectively, or without any additional substance were cultured in a 96-well polyvinyl chloride (PVC) plate (costar) overnight at 30° C. without agitation.\nThe bacterial biomass adsorbed on the 96-well PVC plate was detected by a crystal violet method, and steps were described as below. (1) The non-attached bacteria were removed using a pipettor, then the wells were gently rinsed with normal saline for 3 times. (2) A volume of 120 μL 0.1% crystal violet solution was added to stain the firmly attached bacterial cells in each well, which then staying static at room temperature for 30 min. (3) The PVC plate was taken out, the crystal violet solution was removed with a pipettor, and the non-attached crystal violet solution was washed with normal saline. (4) The crystal violet attached onto the PVC plate was dissolved with 200 μL of 30% acetic acid solution. The OD value of the acetic acid solution in each well was measured at 560 nm with a spectrophotometer."}, "[2]": {"test_system": "Pseudomonas aeruginosa PAO1", "experiment": "Growth curve analysis (OD600)", "assay_type": "cell-based", "conditions": "5 mM C9, LB, 37° C., 24 h", "description": "Pseudomonas aeruginosa PAO1 (optical density OD600≈1.5) was cultured in LB liquid medium overnight, and 1% inoculation amount of the bacterial solution was inoculated into a fresh LB liquid medium. Two equal amounts of bacterial solution with and without 5 mM coumarin-chalcone compound C9 were cultured in a shaking incubator with 200 rpm at 37° C. for 24 h. OD value of the bacterial solution at 600 nm was measured every hour with a spectrophotometer to trace bacterial growth."}, "PAO1 strains [3]": {"test_system": "PAO1 strains", "experiment": "Bacterial motility assay, swimming plate", "assay_type": "cell-based, Pseudomonas aeruginosa", "conditions": "37° C., 24 hours", "description": "PAO1 strains were inoculated into a LBNS agar plate and were cultured overnight at 37° C. Single colonies were respectively inoculated on the surface of swimming plates with and without the coumarin-chalcone compound C9, and cultured at 37° C. for 24 hours. Then, a diameter of a translucent area formed by bacterial swimming on each swimming plate was measured."}, "PAO1 strains [4]": {"test_system": "PAO1 strains", "experiment": "Bacterial motility assay, twitching plate", "assay_type": "cell-based, Pseudomonas aeruginosa", "conditions": "37° C., 24 hours", "description": "PAO1 strains were inoculated into a LBNS agar plate and were cultured overnight at 37° C. Single colonies were respectively stab-inoculated to the bottom of twitching plates with and without the coumarin-chalcone compound C9, and cultured at 37° C. for 24 hours. The growth of bacteria at an interface between the agar and the plastic plate was a twitching movement. When 1% TTC was added to the medium, the area that bacteria have visited may turn red, and then the diameter of the red area on each twitching plate was measured."}, "[5]": {"test_system": "c-di-GMP (PAO1/pCdrA::gfp (ASV))", "experiment": "Intracellular c-di-GMP, indirect, pCdrA::gfp reporter", "assay_type": "cell-based, Pseudomonas aeruginosa", "conditions": "FIG. 6", "text": "(§1) The intracellular c-di-GMP may control the conversion of bacterial lifestyle between plankton and biofilm. In order to analyze an effect of the coumarin-chalcone compound C9 on a concentration of the intracellular c-di-GMP, direct and indirect methods were used to measure the level of c-di-GMP in Pseudomonas aeruginosa.\nSince the transcription and expression of the extracellular protein CdrA was related to the intracellular concentration of cyclic diguanylic acid (c-di-GMP), PAO1/pCdrA::gfp^s (ASV) was used to analyze c-di-GMP level indirectly."}, "intracellular c-di-GMP": {"test_system": "intracellular c-di-GMP", "experiment": "Intracellular c-di-GMP, direct, LC-MS/MS quantification", "assay_type": "cell-based, Pseudomonas aeruginosa", "conditions": "FIG. 7", "text": "as §1\nC-di-GMP was directly extracted from PAO1 strain grown with or without the coumarin-chalcone compound C9. The intracellular c-di-GMP was directly measured by LC-MS/MS quantification."}, "Pseudomonas aeruginosa [6]": {"test_system": "Pseudomonas aeruginosa", "experiment": "Virulence in cabbage model", "assay_type": "in vivo", "conditions": "C9 5 mM, 37° C., 36 hours, CFU", "description": "The PAO1 culture inoculated with the coumarin-chalcone compound C9 (5 mM) was injected into a cabbage model and incubated at 37° C. for 36 hours. Then the colony phenotype was observed and colony-forming units (CFU) were calculated.\nIn the embodiment, the cabbage model was used to carry out the vivo experiment in vivo to study whether the coumarin-chalcone compound C9 affects the virulence of Pseudomonas aeruginosa. FIG. 9 is a schematic diagram illustrating virulences of bacteria of a blank group, a control group, and an experimental group treated with a coumarin-chalcone compound C9."}, "[7]": {"experiment": "Stability at different pH, UV-Vis spectral analysis", "assay_type": "physicochemical", "conditions": "UV absorption, pH range of 3.4 to 8.4", "description": "UV-Vis spectral analysis was used to study the stability of the coumarin-chalcone compound C9 at a pH range of 3.4 to 8.4. […] After reaching pH=2, KOH (25 mM) was added slowly until the pH reached 12. In this way, a graph of a relationship between the pH and the volume of KOH added was plotted to find an equivalent point and thus the pKa.\nIn the embodiment, the stability of the coumarin-chalcone compound C9 was studied. FIGS. 10A to 10C are schematic diagrams illustrating the stability of a coumarin-chalcone compound C9. […] The UV absorption spectroscopy in the pH range of 3.4 to 8.4 further supported the stability of the coumarin-chalcone compound C9. First, HCl (25 mM) was continually added to the coumarin-chalcone compound C9 (initial pH=6.9) until the pH reached 3.4 (FIG. 10B), resulting in an increase in the strength of an absorption band at 330 nm. […] The stability of the coumarin-chalcone compound C9 indicated a great potential to be an anti-QS and anti-biofilm drug."}, "Pseudomonas aeruginosa [8]": {"test_system": "Pseudomonas aeruginosa", "experiment": "Antibiotic susceptibility, filter paper method (inhibition area)", "assay_type": "cell-based", "conditions": "C9 5 mM in culture medium, versus control group", "description": "In the experiment, the coumarin-chalcone compound C9 (5 mM) was added to a culture medium, and an inhibition area of the corresponding antibiotics was measured by a conventional filter paper method."}, "Pseudomonas aeruginosa [9]": {"test_system": "Pseudomonas aeruginosa", "experiment": "MIC of antibiotics, Calgary biofilm device", "assay_type": "cell-based", "conditions": "treated with C9 5 mM, versus untreated group", "description": "(§2) MIC and MBEC values of a biofilm formed on a peg of a […] biofilm device (CGM and CBD) treated with the coumarin-chalcone compound C9 were measured according to methods (Innovotech) in MBECTM high throughput experimental operation manual. Biofilm treated with the coumarin-chalcone compound C9 (5 mM) was cultured in an antibiotic-containing medium in a 96-well plate for 24 h, and the MIC value was obtained by measuring the OD600 of planktonic cells of the above samples. To determine the MBEC value, the biofilm treated with the coumarin-chalcone compound C9 (5 mM) was cultured in an antibiotic-containing medium in a 96-well plate for 24 h, then the biofilm was ultrasonically crushed and subsequently incubated at 37° C. for another 24 hours. Biomass of newly formed biofilms was recorded to indicate the corresponding MBEC value."}, "[10]": {"test_system": "Pseudomonas aeruginosa biofilm", "experiment": "MBEC of antibiotics, Calgary biofilm device", "assay_type": "cell-based", "conditions": "treated with C9 5 mM, versus untreated group", "description": "as §2"}}, "data": [{"smiles": "COc1cccc(/C=C/C(=O)c2cc3ccccc3oc2=O)c1", "note": "[Compound C9]", "values": [{"measurement": "formation of Pseudomonas aeruginosa biofilm", "setting": "[1]; C9 in a range of 1 mM to 5 mM", "value": "significantly inhibited"}, {"measurement": "reduction of the contents of Pseudomonas aeruginosa PAO1 biofilm", "setting": "[1]; FIG. 1, overnight at 30° C., Jensen medium", "value": 70, "unit": "%"}, {"measurement": "inhibition at 5000 µM", "setting": "[1]; Pseudomonas aeruginosa, PAO1, concentration of C9 5 mM, read-out: inhibition rate of biofilm", "value": 70, "unit": "%"}, {"measurement": "effect on growth of Pseudomonas aeruginosa PAO1 (OD600)", "setting": "[2]", "value": "no significant effect"}, {"measurement": "flagellate-mediated swimming ability", "setting": "PAO1 strains [3]", "value": "no effect"}, {"measurement": "twitching motility mediated by type IV pili", "setting": "PAO1 strains [4]", "value": "no effect"}, {"measurement": "fluorescence intensity of PAO1/pCdrA::gfp (ASV)", "setting": "[5]", "value": "significantly reduced"}, {"measurement": "reduction on the c-di-GMP concentration", "setting": "intracellular c-di-GMP", "value": 2, "unit": "fold"}, {"measurement": "reduction of virulence of Pseudomonas aeruginosa in the cabbage model", "setting": "Pseudomonas aeruginosa [6]", "value": 60, "unit": "%"}, {"measurement": "stability at different pH conditions", "setting": "[7]", "value": "stable at different pH conditions"}, {"measurement": "susceptibility of Pseudomonas aeruginosa to fluoroquinolone antibiotics (CIP)", "setting": "Pseudomonas aeruginosa [8]", "value": "significantly higher"}, {"measurement": "MIC of a biofilm against ciprofloxacin", "setting": "Pseudomonas aeruginosa [9]", "value": "significantly lower"}, {"measurement": "MIC of a biofilm against tobramycin", "setting": "Pseudomonas aeruginosa [9]", "value": "significantly lower"}, {"measurement": "MBEC of a biofilm against ciprofloxacin", "setting": "[10]", "value": "significantly lower"}, {"measurement": "MBEC of a biofilm against tobramycin", "setting": "[10]", "value": "significantly lower"}]}]}
